Reference: patent US20210077562A1, “ETBR ANTAGONIST COMPOUNDS, COMPOSITIONS, AND USES” (ENB Therapeutics, Inc., priority 2018, published 2021)

Assays:
[1] = cited from earlier work
[2] = tested on: V600E+ (BRAF mutated) SM1 tumor; assay: SM1 tumor model, in vivo tumor growth curve over 21 days; set-up: species or system C57BL/6 mice
Text: In this study 6-8 week old female C57BL/6 mice were inoculated with SM1 tumor fragments (TME* components present).

| SMILES | degradation in plasma [1] | tumor growth (FIG. 3), standard combination ([2]; dabrafenib 30 mg/kg daily by oral gavage + immune checkpoint inhibitors 10 mg/kg Q4D IP, 21 days) | efficacy on addition to anti-PD1/ETBR antagonist combination ([2]; three-part combination therapy) |
| --- | --- | --- | --- |
| CCCC[C@@H](NC(=O)[C@@H](Cc1cn(C(=O)OC)c2ccccc12)NC(=O)[C@H](CC(C)(C)C)NC(=O)N1[C@H](C)CCC[C@@H]1C)C(=O)O [BQ788, (2R)-2-[[(2R)-2-[[(2S)-2-[[(2R,6S)-2,6-dimethylpiperidine-1-carbonyl]amino]-4,4-dimethylpentanoyl]amino]-3-(1-methoxycarbonylindol-3-yl)propanoyl]amino]hexanoic acid] | rapidly degraded in plasma |  |  |
| CC(C)(C)c1nc(-c2cccc(NS(=O)(=O)c3c(F)cccc3F)c2F)c(-c2ccnc(N)n2)s1 [dabrafenib] |  | failed to shrink tumors but demonstrated intermediate tumor growth inhibition | impairs efficacy |
